The values below come from patent US11142515B2, “Pyrazolyl-ureas as kinase inhibitors” (RESPIVERT LIMITED, priority 2014, dated 2021).

The test system of the data set is PBMCs (mitosis). Kind of data set: Cell mitosis assay in PHA-treated PBMCs. Format: cell-based, human. As to the method:
Peripheral blood mononucleocytes (PBMCs) from healthy subjects were separated from whole blood (Quintiles, London, UK) using a density gradient (Histopaquee-1077, Sigma-Aldrich, Poole, UK). The PBMCs (3 million cells per sample) were subsequently treated with 2% PHA (Sigma-Aldrich, Poole, UK) for 48 h, followed by a 20 h exposure to varying concentrations of test compounds. At 2 h before collection, PBMCs were treated with demecolcine (0.1 μg/mL; Life Technologies, Paisley, UK,) to arrest cells in metaphase.

Molecules are shown by their SMILES.

In the case of `Cc1ccc(-n2nc(C(C)(C)C)cc2NC(=O)Nc2ccc(OCc3ccnc(Nc4cnccn4)c3)c3ccccc23)cc1` [Example 1, 1-(3-(tert-Butyl)-1-(p-tolyl)-1H-pyrazol-5-yl)-3-(4-((2-(pyrazin-2-ylamino)pyridin-4-yl)methoxy)naphthalen-1-yl)urea], the “impact on cell division (mitosis) compared with Reference Compound” value is recorded as “markedly less activity”. For the same compound, where the note is “Homo sapiens, PBMC, 5 μg/mL, PBMC, Table 5A, read-out: Mitosis Assay % Inhibition at 5 μg/mL in PBMC Cells”, the inhibition at 5 µg/mL came to 29.9%.
